Experimental data taken from ChEMBL document CHEMBL3627619, “Synthesis and biological profiling of 6- or 7-(het)aryl-7-deazapurine 4'-C-methylribonucleosides” (Bioorg Med Chem, 2015).

What was measured:
[1] = Cytotoxicity against human HuH7 cells; assay type: cell-based, Huh-7
[2] = tested on: Hepatitis C virus; test: Antiviral activity against Hepatitis C virus subtype 1b replicon infected in human HuH7 cells; assay type: functional, cell-based, Hepacivirus hominis; conditions: genotype 1b, Huh-7
[3] = tested on: HCT-116; test: Cytotoxicity against p53 deficient human HCT116 cells after 3 days by MTT assay; assay type: functional, cell-based; conditions: HCT-116, 72 h
[4] = tested on: A549; test: Cytotoxicity against human A549 cells after 3 days by MTT assay; assay type: functional, cell-based; conditions: A549, 72 h
[5] = tested on: HCT-116; test: Cytotoxicity against human HCT116 cells after 3 days by MTT assay; assay type: functional, cell-based; conditions: HCT-116, 72 h
[6] = Cytotoxicity against human K562-TAX cells after 3 days by MTT assay; assay type: functional, cell-based; conditions: 72 h
[7] = Cytotoxicity against human CEM/DNR cells after 3 days by MTT assay; assay type: functional, cell-based; conditions: 72 h
[8] = tested on: K562; test: Cytotoxicity against human K562 cells after 3 days by MTT assay; assay type: functional, cell-based; conditions: K562, 72 h
[9] = Cytotoxicity against human BJ cells after 3 days by MTT assay; assay type: cell-based
[10] = tested on: CCRF-CEM; test: Cytotoxicity against human CCRF-CEM cells after 3 days by MTT assay; assay type: functional, cell-based; conditions: 72 h
[11] = Cytotoxicity against human MRC5 cells after 3 days by MTT assay; assay type: cell-based
[12] = tested on: dengue virus type 2; test: Antiviral activity against DENV2 infected in African green monkey Vero cells; assay type: functional, organism-based
[13] = Cytotoxicity against African green monkey Vero cells; assay type: cell-based; conditions: chlorocebus sabaeus
[14] = Selectivity index, ratio of CC50 for human HuH7 cells to EC50 for Hepatitis C virus subtype 1b replicon infected in human HuH7 cells; assay type: toxicity, cell-based, Huh-7; conditions: read-out: Ratio CC50/EC50

SMILES | EC50 [2] [µM] | EC50 [12] [µM] | CC50 [1] [µM] | IC50 [3] [µM] | IC50 [4] [µM] | IC50 [5] [µM] | IC50 [6] [µM] | IC50 [7] [µM] | IC50 [8] [µM] | CC50 at 72 h [9] [µM] | IC50 [10] [µM] | CC50 at 72 h [11] [µM] | CC50 [13] [µM] | selectivity ratio [14]
CCOC(=O)[C@H](C)NP(=O)(OC[C@@]1(C)O[C@@H](n2cc(-c3ccco3)c3c(N)ncnc32)[C@H](O)[C@@H]1O)Oc1ccccc1 (stereo not given in full) | > 44 |  | 20.8 |  |  |  |  |  |  |  |  |  |  | 
C[C@]1(CO)O[C@@H](n2cc(-c3ccsc3)c3c(N)ncnc32)[C@H](O)[C@@H]1O | 40.6 | > 50 | > 44 |  |  |  |  |  |  |  |  |  | > 50 | 
C[C@]1(CO)O[C@@H](n2cc(-c3cccs3)c3c(N)ncnc32)[C@H](O)[C@@H]1O | 17.9 | > 50 | > 44 |  |  |  |  |  |  |  |  |  | > 50 | 
CCOC(=O)[C@H](C)NP(=O)(OC[C@@]1(C)O[C@@H](n2cc(-c3cccs3)c3c(N)ncnc32)[C@H](O)[C@@H]1O)Oc1ccccc1 (stereo not given in full) | 23.2 |  | 13 |  |  |  |  |  |  |  |  |  |  | 
CCOC(=O)[C@H](C)NP(=O)(OC[C@@]1(C)O[C@@H](n2ccc3c(-c4ccccc4)ncnc32)[C@H](O)[C@@H]1O)Oc1ccccc1 (stereo not given in full) | 16.5 | > 50 | > 44 | 22.8 | 25.9 | 22.2 | 35.4 | 43.6 | 29.9 | 75.3 | 17.4 | 108 | > 50 | 
CCOC(=O)[C@H](C)NP(=O)(OC[C@@]1(C)O[C@@H](n2ccc3c(-c4ccco4)ncnc32)[C@H](O)[C@@H]1O)Oc1ccccc1 (stereo not given in full) | 17.6 | > 50 | 27.9 |  |  |  |  |  |  |  |  |  | > 50 | 
CCOC(=O)[C@H](C)NP(=O)(OC[C@@]1(C)O[C@@H](n2cc(-c3ccccc3)c3c(N)ncnc32)[C@H](O)[C@@H]1O)Oc1ccccc1 (stereo not given in full) | 18 |  | 9.1 |  |  |  |  |  |  |  |  |  |  | 
C[C@]1(CO)O[C@@H](n2cc(-c3ccco3)c3c(N)ncnc32)[C@H](O)[C@@H]1O | 20 | > 50 | > 44 |  |  |  |  |  |  |  |  |  | > 50 | 

The next compounds have a lower EC50 [2] than those just listed; values first:

EC50 [2] [µM] | EC50 [12] [µM] | SMILES | CC50 [1] [µM] | IC50 [3] [µM] | IC50 [4] [µM] | IC50 [5] [µM] | IC50 [6] [µM] | IC50 [7] [µM] | IC50 [8] [µM] | CC50 at 72 h [9] [µM] | IC50 [10] [µM] | CC50 at 72 h [11] [µM] | CC50 [13] [µM] | selectivity ratio [14]
3.32 |  | CCOC(=O)[C@H](C)NP(=O)(OC[C@@]1(C)O[C@@H](n2ccc3c(-c4cccs4)ncnc32)[C@H](O)[C@@H]1O)Oc1ccccc1 (stereo not given in full) | 3.64 | 22 | 22.2 | 19.4 | 33.6 | 43.1 | 22.9 | 83.1 | 12.3 | 106 |  | 
4.48 | 10.1 | C[C@]1(CO)O[C@@H](n2cc(-c3cc4ccccc4o3)c3c(N)ncnc32)[C@H](O)[C@@H]1O | 31.1 | 10.7 | 7.13 | 9.75 | 8.82 | 8.94 | 9.64 | 104 | 16.6 | 83.7 | 27 | 
7.62 | > 50 | C[C@]1(CO)O[C@@H](n2ccc3c(-c4cc5ccccc5o4)ncnc32)[C@H](O)[C@@H]1O | > 44 |  |  |  |  |  |  |  |  |  | > 50 | 
3.75 | 5.55 | C[C@]1(CO)O[C@@H](n2cc(I)c3c(N)ncnc32)[C@H](O)[C@@H]1O | 27.1 | 5.87 | 5.92 | 5.25 | 9.46 | 27.9 | 20.4 | 42.4 | 10.2 | 40.8 | 8.08 | 7.2
6.27 | 4.59 | C#Cc1cn([C@@H]2O[C@](C)(CO)[C@@H](O)[C@H]2O)c2ncnc(N)c12 | 32.2 | 10.2 | 9.55 | 8.79 | 27.4 | 38.4 | 31.1 | 126 | 30.3 | 125 | 13.4 | 
